Experimental data from US20110152212A1, “Aqueous Formulations” (priority 2007, published 2011).
Converted amounts (≈) assume the structure as drawn.

Assays:
[1] = Intrinsic solubility of drug; assay type: physicochemical
Description: (§1) J. Pharm 302(2005), 18-28 and S. I. F. Badaway et al, Int. J. Pharmaceut.128(1996), 45-54.

[2] = Solubility in 10% w/v hydroxypropyl cyclodextrin solution; assay type: physicochemical; settings: for solubility: 10% w/v hydroxypropyl cyclodextrin solution, aqueous with cosolvent or surfactant or cyclodextrin, read-out: Solubility in 10% w/v Hydroxypropyl Cyclodextrin soln.
Description: as §1

[3] = Solubility in Example 7 formulation (hydrogel in 50:50 wt % water/ethanol); assay type: physicochemical; settings: 50:50 wt % water/ethanol with polyvinylalcohol and butylidene polymer; for solubility: aqueous with cosolvent or surfactant or cyclodextrin
Description: As an alternative to the general procedure described in Example 2 and the procedures described in other examples, a solvent may comprise a 50:50 wt % water/ethanol solution. The polyvinylalcohol and butylidene polymer may be included in such a solvent and the mixture may then be acidified to a pH of not less than 2.5 to cause polyvinylalcohol and butylidene polymer to react in an acid catalysed reaction. A drug of low solubility may then be added to the mixture as described in the other examples.
as §1

[4] = Time for solid drug to dissolve in acidified hydrogel mixture at ambient temperature with stirring; assay type: physicochemical; settings: 0.2 wt % drug in 0.5 wt % hydrogel, pH about 2.5, ambient temperature
Description: A 0.5 wt % formulation of a hydrogel was prepared comprising Poval 220 polyvinylalcohol and the butylidene polymer of Example 1 in the weight ratio 10:1. The pH of the mixture was lowered to about 2.5 by addition of hydrochloric acid and, with the pH at the lowered level, doxorubicin, a solid red powder, was added at ambient temperature with stirring to give a level of 0.2 wt % doxorubicin in the mixture. […] After the formulation has been prepared, the pH may be raised to about 7 by addition of alkali to neutralise it.
A 2 wt % formulation of a hydrogel was prepared comprising KH-20 polyvinylalcohol and the butylidene polymer of Example 1 in a weight ratio 10:1. The pH of the mixture was lowered to about 2.5, by addition of hydrochloric acid. Then, doxycycline, in a solid form, was added at ambient temperature with stirring to give a level of 0.5 wt % of doxycycline in the mixture. The doxycycline appeared to dissolve in the water within about 15 minutes to give a clear pale yellow mixture which appeared to comprise a solution but more likely comprises complexed doxycycline.

[5] = aqueous formulation, Poval 220 polyvinylalcohol/butylidene polymer hydrogel (Example 3 process)
[6] = physchem; settings: pH 2.5, aqueous with cosolvent or surfactant or cyclodextrin, thermodynamic from solid

| Structure (SMILES) | Intrinsic Solubility [1] [µg/mL] | solubility [2] [µg/mL] | solubility [3] [µg/mL] | solubility [1] [µg/mL] | also measured |
| --- | --- | --- | --- | --- | --- |
| Clc1ccccc1C(c1ccccc1)(c1ccccc1)n1ccnc1 [Clotrimazole] | 70 | 1210 (≈ 3.51 mM) | 11800 (≈ 34.2 mM) | – | – |
| Clc1ccc(COC(Cn2ccnc2)c2ccc(Cl)cc2Cl)cc1 (stereo not drawn) [Econazole] | – | 4990 (≈ 13.1 mM) | 12600 (≈ 33 mM) | 370 (≈ 0.969 mM) | – |
| Clc1ccc(COC(Cn2ccnc2)c2ccc(Cl)cc2Cl)c(Cl)c1 (stereo not drawn) [Miconazole] | – | 2460 (≈ 5.91 mM) | 4700 (≈ 11.3 mM) | 90 (≈ 0.216 mM) | – |
| CC(C)c1cccc(C(C)C)c1O [Propafol] | 160 | – | – | – | Solubility in 10% w/v Hydroxypropyl Cyclodextrin soln. [2]: 7690 µg/mL (≈ 43.1 mM); Example 7 formulation (solubility) [3]: 34800 µg/mL |
| COc1cccc2c1C(=O)c1c(O)c3c(c(O)c1C2=O)C[C@@](O)(C(=O)CO)C[C@@H]3O[C@H]1C[C@H](N)[C@H](O)[C@H](C)O1 [doxorubicin] | – | – | – | – | appeared to dissolve in the water (time) [4]: substantially instantaneously; saturation solubility [5]: 11.5 % w/v; solubility [6]: 115000 µg/mL (≈ 212 mM) |
